From US12319652B2, “Salts and solid forms of (R)-1-(5-methoxy-1H-indol-1-yl)-N,N-dimethylpropan-2-amine” (priority 2021, dated 2025)

Assay: Solubility determinations in SIF buffers (FaSSIF, FeSSIF, FaSSGF)
Assay type: physicochemical
Conditions: for XRPD (dried) / XRPD (wet): solid residue
Protocol: At this stage ca. 1 g of each front-runner salt form was prepared. Salt forms that offered significant solubility and stability advantages over the non-ionized API were prioritized. […] Scale Up
The solubility of the salts below was determined in FaSSIF, FeSSIF and FaSSGF by reference to the calibration curve of amorphous compound 1.
Separate portions of compound 1 were weighed out into aluminum boats and were charged to the relevant volumetric flasks. Solutions were made to volume with 1 to 1 (v/v) acetonitrile/purified water to give calibrants of known API concentrations and analyzed by HPLC, suitable to determine the concentration of compound 1 free base in the SIF buffer solubility study.
Each sample (150 mg) was suspended in the relevant SIF buffer (5.0 ml), to give a concentration of 30 mg/ml and maintain at 37° C. for 24 h. The pH was adjusted using 1 M HCl or 1 M NaOH, to ensure that the suspension remains in range.
Sample (1 ml) of the well-stirred representative suspensions was obtained at 1 h, 3 h, 6 h and 24 h and the pH was recorded. The pH of the bulk suspension was re-adjusted when necessary. The obtained sample from each vial was centrifuged, and the supernatant was analysed by HPLC (note, the analyte was diluted, when outside of the calibration range); XRPD analysis was performed on the wet sample pellet for evidence of form change, as well as on the oven-dried pellet (undervacuum at 40° C.).

[1] = FaSSGF (ph 1.6), t = 1 h@37° C.
[2] = FaSSGF (ph 1.6), t = 3 h@37° C.
[3] = FaSSGF (ph 1.6), t = 6 h@37° C.
[4] = FaSSGF (ph 1.6), t = 24 h @37° C.
[5] = FaSSIF (ph 6.5), t = 1 h@37° C.
[6] = FaSSIF (ph 6.5), t = 3 h@37° C.
[7] = FaSSIF (ph 6.5), t = 6 h@37° C.
[8] = FaSSIF (ph 6.5), t = 24 h @37° C.
[9] = FeSSIF (ph 5.0), t = 1 h@37° C.
[10] = FeSSIF (ph 5.0), t = 3 h@37° C.
[11] = FeSSIF (ph 5.0), t = 6 h@37° C.
[12] = FeSSIF (ph 5.0), t = 24 h @37° C.

Row | SMILES | Solubility [1] | Solubility [2] | Solubility [3] | Solubility [4] | Solubility [5] | Solubility [6] | Solubility [7] | Solubility [8] | Solubility [9] | Solubility [10] | Solubility [11] | Solubility [12] | XRPD (dried) [1] | XRPD (wet) [1] | XRPD (dried) [2] | XRPD (wet) [2] | XRPD (dried) [3] | XRPD (wet) [3] | XRPD (dried) [4] | XRPD (wet) [4]
1 | COc1ccc2c(ccn2C[C@@H](C)N(C)C)c1.O=C(O)c1ccccc1 [Compound 1 · Benzoate] | 28.74 mg/mL | 26.85 mg/mL | 26.33 mg/mL | 25.59 mg/mL | >30 mg/mL | >30 mg/mL | >30 mg/mL | >30 mg/mL | >30 mg/mL | >30 mg/mL | >30 mg/mL | >30 mg/mL | Benzoic acid | Benzoic acid | Benzoic acid | Benzoic acid | Benzoic | Benzoic acid | Benzoic | Benzoic
2 | COc1ccc2c(ccn2C[C@@H](C)N(C)C)c1.O=C(O)/C=C\C(=O)O [Compound 1 · Maleate] | >30 mg/mL | >30 mg/mL | >30 mg/mL | >30 mg/mL | >30 mg/mL | >30 mg/mL | >30 mg/mL | >30 mg/mL | >30 mg/mL | >30 mg/mL | >30 mg/mL | >30 mg/mL |  |  |  |  |  |  |  | 
3 | COc1ccc2c(ccn2C[C@@H](C)N(C)C)c1.Cl [Compound 1 · HCl] | >30 mg/mL | >30 mg/mL | >30 mg/mL | >30 mg/mL | >30 mg/mL | >30 mg/mL | >30 mg/mL | >30 mg/mL | >30 mg/mL | >30 mg/mL | >30 mg/mL | >30 mg/mL |  |  |  |  |  |  |  | 
